Assay results as given in patent US6476030B1, “Pyrazolo-triazine derivatives as ligands for GABA receptors” (Merck Sharp & Dohme Ltd., priority 1998, dated 2002).
Counter-ions that a name gives are not always drawn.

Row | melting point [°C] | SMILES
1 | 196 to 200 | Cn1ncnc1COc1nn2c(-c3ccccc3F)nncc2c1-c1cccc(N)c1 (as salt: hemisulfate) [Example 94, 3-(3-Aminophenyl)-7-(2-fluorophenyl)-2-(2-methyl-2H-[1,2,4]triazol-3-ylmethoxy)pyrazolo[1,5-d][1,2,4]triazine]
2 | 176 | Cn1ncnc1COc1nn2c(-c3ccccc3F)nncc2c1-c1ccccc1 [Example 1, 7-(2-Fluorophenyl)-2-(2-methyl-2H-[1,2,4]triazol-3-ylmethoxy)-3-phenylpyrazolo[1,5-d][1,2,4]triazine]
3 | 169 | Cn1ncnc1COc1nn2c(-c3ccccc3F)nncc2c1-c1ccccc1F [Example 2, 3-(2-Fluorophenyl)-7-(2-fluorophenyl)-2-(2-methyl-2H-[1,2,4]triazol-3-ylmethoxy)pyrazolo[1,5-d][1,2,4]triazine]
4 | 176 | Cn1ncnc1COc1nn2c(-c3ccccc3F)nncc2c1-c1cccc(F)c1 [Example 3, 3-(3-Fluorophenyl)-7-(2-fluorophenyl)-2-(2-methyl-2H-[1,2,4]triazol-3-ylmethoxy)pyrazolo[1,5-d][1,2,4]triazine]
5 | 192 | Cn1ncnc1COc1nn2c(-c3ccccc3F)nncc2c1-c1ccc(F)cc1 [Example 4, 3-(4-Fluorophenyl)-7-(2-fluorophenyl)-2-(2-methyl-2H-[1,2,4]triazol-3-ylmethoxy)pyrazolo[1,5-d][1,2,4]triazine]
6 | 171 to 173 | CCn1ncnc1COc1nn2c(-c3ccccc3F)nncc2c1-c1ccccc1 [Example 5, 2-(2-Ethyl-2H-[1,2,4]triazol-3-ylmethoxy)-7-(2-fluorophenyl)-3-phenylpyrazolo[1,5-d][1,2,4]triazine]
7 | 198 | Cn1ncnc1COc1nn2c(-c3cccc(F)c3)nncc2c1-c1ccccc1 [Example 7, 7-(3-Fluorophenyl)-2-(2-methyl-2H-[1,2,4]triazol-3-ylmethoxy)-3-phenylpyrazolo[1,5-d][1,2,4]triazine]
8 | 182 to 183 | Fc1ccccc1-c1nncc2c(-c3ccccc3)c(OCc3ccccn3)nn12 [Example 8, 7-(2-Fluorophenyl)-3-phenyl-2-(pyridin-2-ylmethoxy)pyrazolo[1,5-d][1,2,4]triazine]
9 | 179 | Cn1ncnc1COc1nn2c(-c3c(F)cccc3F)nncc2c1-c1ccccc1 [Example 10, 7-(2,6-Difluorophenyl)-2-(2-methyl-2H-[1,2,4]triazol-3-ylmethoxy)-3-phenylpyrazolo[1,5-d][1,2,4]triazine]
10 | 209 | Cn1ncnc1COc1nn2c(-c3cccs3)nncc2c1-c1ccccc1 [Example 11, 2-(2-Methyl-2H-[1,2,4]triazol-3-ylmethoxy)-3-phenyl-7-(thien-2-yl) pyrazolo[1,5-d][1,2,4]triazine]
11 | 185 | Cn1ncnc1COc1nn2c(-c3ccccc3)nncc2c1-c1ccccc1 [Example 12, 3,7-Diphenyl-2-(2-methyl-2H-[1,2,4]triazol-3-ylmethoxy)pyrazolo[1,5-d][1,2,4]triazine]
12 | 199 | Cn1ncnc1COc1nn2c(-c3cc(F)ccc3F)nncc2c1-c1ccccc1 [Example 13, 7-(2,5-Difluorophenyl)-2-(2-methyl-2H-[1,2,4]triazol-3-ylmethoxy)-3-phenylpyrazolo[1,5-d][1,2,4]triazine]
13 | 164 to 165 | Cn1ncnc1COc1nn2c(-c3ccccc3F)nncc2c1-c1cc(F)ccc1F [Example 14, 3-(2,5-Difluorophenyl)-7-(2-fluorophenyl)-2-(2-methyl-2H-[1,2,4]triazol-3-ylmethoxy)Pyrazolo[1,5-d][1,2,4]triazine]
14 | 196 | Cn1ncnc1COc1nn2c(-c3ccccc3F)nncc2c1-c1c(F)cccc1F [Example 15, 3-(2,6-Difluorophenyl)-7-(2-fluorophenyl)-2-(2-methyl-2H-[1,2,4]triazol-3-ylmethoxy)pyrazolo[1,5-d][1,2,4]triazine]
